In US5153353A, “p-Oxybenzoic acid derivatives, process for the preparation thereof and use thereof as drug” (Klinge Pharma GmbH, priority 1990, dated 1992):

Columns and labels:
[1] = test system: cholesterol biosynthesis in rat liver homogenate; assay: Determination of the inhibition of cholesterol biosynthesis in rat liver homogenate (14C-acetate incorporation); assay type: biochemical; conditions: compared with the blank value
Procedure: 2) Determination of the inhibition of cholesterol biosynthesis
3 g freshly prepared rat liver was homogenized in 6 ml ice-cooled puffer and centrifuged for 20 minutes at 20000×g. The supernatant was separated off and employed for the following determinations.
To a mixture of 110 μl supernatant and 300 μl incubation solution 10 μl of the methanolic test substance solution were pipetted and incubated at 37° C. for 20 minutes. Thereafter 10 μl of an ^14 C-acetate solution were added by pipette and incubated for a further 30 minutes. Thereafter, to the mixture 500 μl ethanolic KOH solution were added, further incubation carried out for 60 minutes at 75° C. and thereafter the reaction stopped in an ice bath. To enable a yield correction to be made for the subsequent extraction of the ^14 C-cholesterol formed ^3 H-cholesterol (about 10^-3 μCi) was added thereto by pipetting. In addition, 500 μl of an ethanolic solution of unmarked cholesterol was added. The cholesterol of the mixture was extracted twice with 1 ml petroleum ether in each case, the extract dried and taken up with 0.6 ml of an ethanol/acetone mixture (1/1). The dissolved cholesterol was then precipitated by means of 1.4 ml of a digitonin solution (=7 mg). After 15 h at 0° C. the precipitate was centrifuged off, dissolved with 0.5 ml methanol/glacial acetic acid (33/5) and diluted with 2 ml methanol. The radioactivity of the biosynthetically formed cholesterol was determined in 12 ml scintillation liquid (DIMILUME) by means of a scintillation counter.
Buffer: 6.8 g KH2 PO4, 0.6 g MgCl2, 0.37 g EDTA, 1.83 g nicotine amide, 51.35 g saccharose and 0.4 g mercaptoethanol were dissolved in distilled water and diluted to 500 ml (PH =7.2).
Incubation solution: The following were each individually dissolved:
8.6 mg NAD with 1.3 ml buffer
10.2 mg NADP with 1.3 ml buffer
39.6 mg glucose-6-phosphate with 0.65 ml buffer
31.6 mg glucose-6-phosphate-dehydrogenase (1000 U/0.91 ml) with 0.285 ml buffer
These solutions were not mixed until immediately prior to use.
Solution 1: 250 μCi ^14 C-sodium acetate in 1 ml aqua dest.
Solution 2: 512.5 mg sodium acetate in 10 ml aqua dest.
Prior to the test 0.1 ml of the solution 1 and 0.4 ml of the solution 2 were mixed and added to 2 ml aqua dest.
Ethanolic KOH: 10 g KOH were dissolved in 100 ml. ethanol
Method: R. E. Dugan et al. (Archives Biochem. Biophys. 152,21 (1972))

[2] = test system: normolipemic, male Wister rats; assay: Determination of the hypolipemic effect in rats (serum total cholesterol and triglycerides after oral administration); assay type: in vivo, rat; conditions: three administrations over three days
Procedure: 1) Determination of the hypolipemic effect in rats
The lipid-lowering effect of the test substances was examined in groups each of 10 normolipemic, male Wister rats of 200 to 220 g in weight.
The investigations were performed after a 3-week adaption training of the eating habits of the animals. The controlled feeding was carried out daily from 8 a.m. to 10 a.m. The test substances were administered at 11 a.m.
The test compounds were absorbed in an aqueous solution of 0.25% agar and 0.84% NaCl and administered orally. After three administrations over a period of three days blood was extracted from the animals.
The determination of cholesterol and triglycerides in the serum was made with the aid of the "Cobas-Bio" centrifugal analyzer of Hoffmann-La Roche.
a) Cholesterol determination CHOS-PAP method, enzymatic colour test according to J. Siedel et al. (J. Clin. Chem. Clin. Biochem. 19, 838 (1981))
b) Triglyceride determination Enzymatic cleavage of the triglycerides with the aid of specific lipases with subsequent determination of the liberated glycerol according to T. O. Tiffany et al. (Clin. Chem. 20, 476 (1974))

Structure (SMILES)	Percentage inhibition of cholesterol biosynthesis in rat liver homogenate ([1]; concentration 1 × 10^-4 Mol/l) [%]	Percentage inhibition of cholesterol biosynthesis in rat liver homogenate ([1]; concentration 1 × 10^-5 Mol/l) [%]	Percentage inhibition of cholesterol biosynthesis in rat liver homogenate ([1]; concentration 3 × 10^-5 Mol/l) [%]	Percentage inhibition of cholesterol biosynthesis in rat liver homogenate ([1]; concentration 3 × 10^-6 Mol/l) [%]	Percentage change of the total cholesterol (TC) level in the rat serum, X ± SD ([2]; 100 mg/kg) [%]	Percentage change of the triglyceride (TG) level in the rat serum, X ± SD ([2]; 100 mg/kg) [%]	Percentage change of the total cholesterol (TC) level in the rat serum, X ± SD ([2]; 10 mg/kg)	Percentage change of the triglyceride (TG) level in the rat serum, X ± SD ([2]; 10 mg/kg) [%]	Percentage change of the total cholesterol (TC) level in the rat serum, X ± SD ([2]; 30 mg/kg) [%]	Percentage change of the triglyceride (TG) level in the rat serum, X ± SD ([2]; 30 mg/kg) [%]
CC(C)(CO)c1ccc(CCC(O)COc2ccc(C(=O)O)cc2)cc1 (stereo not drawn) [Compound 2]	75	41	65	16	-39.7 ± 12.4	-1.6 ± 21.4				
CCOC(=O)C(C)(C)Oc1ccc(Cl)cc1 [CLOFIBRAT, reference compound]					-14.5 ± 12.0	-29.2 ± 19.4				
CC(C)(C)c1ccc(CCC(O)COc2ccc(C(=O)OCC(O)CO)cc2)cc1 (stereo not drawn) [Compound 1, 4-[4-(4'-tert. butylphenyl)-2-hydoxybutoxy]benzoic acid-2,3-dihydroxypropylester]	68	34	57	0	-44.1 ± 10.8	-34.7 ± 8.6	+3.8 ± 16.4%	-26.2 ± 51.1	-17.1 ± 13.9	-28.5 ± 9.0
CC(C)(C(=O)O)c1ccc(CCC(O)COc2ccc(C(=O)O)cc2)cc1 (stereo not drawn) [Compound 3, 4-{4-[4'-(1-carboxy-1-methylethyl)phenyl]-2-hydroxybutoxy}benzoic acid]	70	29	56	14	-17.5 ± 6.2	-19.4 ± 9.7				
